Measurements: patent US20230391772A1, “METHODS AND COMPOSITIONS FOR TARGETED PROTEIN DEGRADATION” (Ranok Therapeutics (Hangzhou) Co. Ltd., priority 2020, published 2023)

How the values were obtained:
[1] = target: T1, KRAS(G12C) (Homo sapiens, UniProt P01116, G12C); assay: KRAS(G12C) Western blot protein degradation assay in LU65A cells; assay type: cell-based; parameters: LU65A human lung cancer cell line, which expresses KRAS(G12C); host or cells: LU65A; conditions: 6 hr
How it was run: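 Cells treated with compound at various concentrations at 37 °C for 48 hr (MIA PaCa-2) or 6 hr (LU65A), then lysed in RIPA. Protein-normalized lysates immunoblotted for KRAS with β-actin, fluorescence quantified; DC50 is the concentration giving 50% of maximal KRAS degradation.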

[2] = system: MIA PaCa-2 human pancreatic carcinoma; assay: MIA PaCa-2 CCK-8 proliferation assay; assay type: cell-based; conditions: Homo sapiens, MIA PaCa-2, 72 h, MIA PaCa-2 cells
How it was run: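 Three KRAS(G12C) lines are used, MIA PaCa-2 at two mutant copies and the NSCLC lines NCI-H358 and NCI-H23 at one. Each compound is titrated 3-fold from 20 μM to 1.02 nM, and proliferation is scored by CCK-8.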

[3] = target: T1, KRAS(G12C); assay: KRAS(G12C)/SOS1 homogeneous time-resolved fluorescence (HTRF) assay; parameters: purchased Cisbio 63ADK000CB16PEG; conditions: absence of GTP, 4° C. for 3 hr, read-out: KRAS (G12C) binding
How it was run: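 HTRF kit measuring compound-induced block of KRAS(G12C)-SOS1 interaction without GTP. Compounds tested as 3-fold serial dilutions down to 1.02 nM, incubated with reaction components 3 h at 4 °C in sealed plates before fluorescence read.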

[4] = target: T2, HSP90a protein (Homo sapiens, UniProt P07900); assay: HSP90α-binding fluorescent polarization (FP) assay, BODIPY-labeled RNK04010 probe; conditions: FP competition with RNK04010 (BODIPY-labeled), 5 nM, 300 min at 25° C.
T2 construct: purchased BPS Bioscience 50298
How it was run: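 Polarization signal was read after equilibration at 25° C, for 120 min with FITC-geldanamycin or 300 min with the BODIPY-tagged RNK04010 probe, each at 5 nM final. Compounds spanned 20 μM down to 5.2 nM in 2.5-fold dilutions against the HSP90a N-terminal domain.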

T1 sequence (P01116 1-188 isoform P01116-2 G12C): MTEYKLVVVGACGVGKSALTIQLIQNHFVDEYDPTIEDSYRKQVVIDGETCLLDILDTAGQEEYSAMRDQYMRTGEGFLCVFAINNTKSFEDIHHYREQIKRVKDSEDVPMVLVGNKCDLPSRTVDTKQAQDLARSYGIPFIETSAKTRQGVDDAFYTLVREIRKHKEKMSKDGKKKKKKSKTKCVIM

Row | SMILES | DC50 [1] [nM] | EC50 [2] [nM] | IC50 [3] [nM] | IC50 [4] [nM]
1 | C=CC(=O)N1CCN(c2nc(OC[C@@H]3C[C@H](N4CCC(C(=O)N5CCN(Cc6ccc(-n7c(O)nnc7-c7cc(CC)c(O)cc7O)cc6)CC5)CC4)CN3C)nc3c2CCN(c2cccc4cccc(Cl)c24)C3)C[C@@H]1CC#N [Compound 233, 2-[(2S)-4-[7-(8-chloronaphthalen-1-yl)-2-{[(2S,4S)-4-{4-[4-({4-[3-(5-ethyl-2,4-dihydroxyphenyl)-5-hydroxy-1,2,4-triazol-4-yl]phenyl}methyl)piperazine-1-carbonyl]piperidin-1-yl}-1-methylpyrrolidin-2-yl]methoxy}-5H,6H,8H-pyrido[3,4-d]pyrimidin-4-yl]-1-(prop-2-enoyl)piperazin-2-yl]acetonitrile] | > 1000 | > 1000 | < 100 | < 100
2 | C=C(F)C(=O)N1CCN(c2nc(OCCN3CCN(C(=O)C4CCN(Cc5ccc(-n6c(O)nnc6-c6cc(C(C)C)c(O)cc6O)cc5)CC4)CC3)nc3c2CCN(c2cccc4cccc(Cl)c24)C3)C[C@@H]1CC#N [Compound 224, (S)-2-(4-(7-(8-chloronaphthalen-1-yl)-2-(2-(4-(1-(4-(3-(2,4-dihydroxy-5-isopropylphenyl)-5-hydroxy-4H-1,2,4-triazol-4-yl)benzyl)piperidine-4-carbonyl)piperazin-1-yl)ethoxy)-5,6,7,8-tetrahydropyrido[3,4-d]pyrimidin-4-yl)-1-(2-fluoroacryloyl)piperazin-2-yl)acetonitrile] | > 1000 | 100 to 1000 | > 1000 | < 100
3 | C=CC(=O)N1CCN(c2nc(OC[C@@H]3C[C@H](N4CCC(C(=O)N5CCN(Cc6ccc(-n7c(C(=O)NCC(F)(F)F)nnc7-c7cc(C)c(O)cc7O)cc6)CC5)CC4)CN3C)nc3c2CCN(c2cccc4cccc(Cl)c24)C3)C[C@@H]1CC#N [Compound 336, 4-{4-[(4-{1-[(3S,5S)-5-({[7-(8-chloronaphthalen-1-yl)-4-[(3S)-3-(cyanomethyl)-4-(prop-2-enoyl)piperazin-1-yl]-5H,6H,8H-pyrido[3,4-d]pyrimidin-2-yl]oxy}methyl)-1-methylpyrrolidin-3-yl]piperidine-4-carbonyl}piperazin-1-yl)methyl]phenyl}-5-(2,4-dihydroxy-5-methylphenyl)-N-(2,2,2-trifluoroethyl)-1,2,4-triazole-3-carbox-amide] | > 1000 | 100 to 1000 | < 100 | < 100
4 | C=CC(=O)N1CCN(c2nc(OC[C@@H]3CC[C@H](CN4CCN(Cc5ccc(-n6c(O)nnc6-c6cc(C)c(O)cc6O)cc5)CC4)N3C)nc3c2CCN(c2cccc4cccc(Cl)c24)C3)C[C@@H]1CC#N [Compound 227, 2-[(2S)-4-[7-(8-chloronaphthalen-1-yl)-2-{[(2S,5R)-5-{[4-({4-[3-(2,4-dihydroxy-5-methylphenyl)-5-hydroxy-1,2,4-triazol-4-yl]phenyl}methyl)piperazin-1-yl]methyl}-1-methylpyrrolidin-2-yl]methoxy}-5H,6H,8H-pyrido[3,4-d]pyrimidin-4-yl]-1-(prop-2-enoyl)piperazin-2-yl]acetonitrile] | > 1000 | 100 to 1000 | < 100 | < 100
5 | C=CC(=O)N1CCN(c2nc(OCCN3CCN(Cc4ccc(-n5c(O)nnc5-c5cc(C)c(O)cc5O)cc4)CC3)nc3c2CCN(c2cccc4cccc(Cl)c24)C3)C[C@@H]1CC#N [Compound 213, (S)-2-(1-acryloyl-4-(7-(8-chloronaphthalen-1-yl)-2-(2-(4-(4-(3-(2,4-dihydroxy-5-methylphenyl)-5-hydroxy-4H-1,2,4-triazol-4-yl)benzyl)piperazin-1-yl)ethoxy)-5,6,7,8-tetrahydropyrido[3,4-d]pyrimidin-4-yl)piperazin-2-yl)acetonitrile] | > 1000 | > 1000 | 100 to 1000 | < 100
6 | C=CC(=O)N1CCN(c2nc(OCC3CN(C(=O)C4CCN(Cc5ccc(-n6c(C(=O)NCC(F)(F)F)nnc6-c6cc(C(C)C)c(O)cc6O)cc5)CC4)C3)nc3c2CCN(c2cccc4cccc(Cl)c24)C3)C[C@@H]1CC#N [Compound 220, (S)-4-(4-((4-(3-(((4-(4-acryloyl-3-(cyanomethyl)piperazin-1-yl)-7-(8-chloronaphthalen-1-yl)-5,6,7,8-tetrahydropyrido[3,4-d]pyrimidin-2-yl)oxy)methyl)azetidine-1-carbonyl)piperidin-1-yl)methyl)phenyl)-5-(2,4-dihydroxy-5-isopropylphenyl)-N-(2,2,2-trifluoroethyl)-4H-1,2,4-triazole-3-carboxamide] | > 1000 | 100 to 1000 | 100 to 1000 | < 100

The next lines start with the values.

Row | DC50 [1] [nM] | EC50 [2] [nM] | IC50 [3] [nM] | IC50 [4] [nM] | SMILES
7 | 100 to 1000 | < 100 | < 100 | < 100 | C=CC(=O)N1CCN(c2nc(OC[C@@H]3C[C@H](N4CCC5(CCN(Cc6ccc(-n7c(O)nnc7-c7cc(C(C)C)c(O)cc7O)cc6)CC5)CC4)CN3C)nc3c2CCN(c2cccc4cccc(Cl)c24)C3)C[C@@H]1CC#N [Compound 334, 2-[(2S)-4-[7-(8-chloronaphthalen-1-yl)-2-{[(2S,4S)-4-[9-({4-[3-(2,4-dihydroxy-5-isopropylphenyl)-5-hydroxy-1,2,4-triazol-4-yl]phenyl}methyl)-3,9-diazaspiro[5.5]undecan-3-yl]-1-methylpyrrolidin-2-yl]methoxy}-5H,6H,8H-pyrido[3,4-d]pyrimidin-4-yl]-1-(prop-2-enoyl)piperazin-2-yl]acetonitrile]
8 | 100 to 1000 | 100 to 1000 | < 100 | < 100 | C=CC(=O)N1CCN(c2nc(OCCN3CCN(C(=O)C4CCN(Cc5ccc(-n6c(C(N)=O)nnc6-c6cc(C(C)C)c(O)cc6O)cc5)CC4)CC3)nc3c2CCN(c2cccc4cccc(Cl)c24)C3)C[C@@H]1CC#N [Compound 193, (S)-4-(4-((4-(4-(2-((4-(4-acryloyl-3-(cyanomethyl)piperazin-1-yl)-7-(8-chloronaphthalen-1-yl)-5,6,7,8-tetrahydropyrido[3,4-d]pyrimidin-2-yl)oxy)ethyl)piperazine-1-carbonyl)piperidin-1-yl)methyl)phenyl)-5-(2,4-dihydroxy-5-isopropylphenyl)-4H-1,2,4-triazole-3-carboxamide]
9 | 100 to 1000 | > 1000 | < 100 | < 100 | C=CC(=O)N1CCN(c2nc(OC[C@@H]3C[C@H](C(=O)NCCOCCOc4ccc(-n5c(O)nnc5-c5cc(CC)c(O)cc5O)cc4)CN3C)nc3c2CCN(c2cccc4cccc(Cl)c24)C3)C[C@@H]1CC#N [Compound 349, (3S,5S)-5-({[7-(8-chloronaphthalen-1-yl)-4-[(3S)-3-(cyanomethyl)-4-(prop-2-enoyl)piperazin-1-yl]-5H,6H,8H-pyrido[3,4-d]pyrimidin-2-yl]oxy}methyl)-N-[2-(2-{4-[3-(5-ethyl-2,4-dihydroxyphenyl)-5-hydroxy-1,2,4-triazol-4-yl]phenoxy}ethoxy)ethyl]-1-methylpyrrolidine-3-carboxamide]
10 | 100 to 1000 | 100 to 1000 | < 100 | < 100 | C=CC(=O)N1CCN(c2nc(OCCN3CCN(C(=O)C4CCN(Cc5ccc(-n6c(O)nnc6-c6cc(C(C)C)c(O)cc6O)cc5)CC4)CC3)nc3c2CCN(c2cccc4cccc(Cl)c24)C3)C[C@@H]1CC#N [Compound 192, (S)-2-(1-acryloyl-4-(7-(8-chloronaphthalen-1-yl)-2-(2-(4-(1-(4-(3-(2,4-dihydroxy-5-isopropylphenyl)-5-hydroxy-4H-1,2,4-triazol-4-yl)benzyl)piperidine-4-carbonyl)piperazin-1-yl)ethoxy)-5,6,7,8-tetrahydropyrido[3,4-d]pyrimidin-4-yl)piperazin-2-yl)acetonitrile, trifluoroacetic acid]
11 | 100 to 1000 | > 1000 | < 100 | < 100 | C=CC(=O)N1CCN(c2nc(OCCN3CCN(C(=O)C4CCN(Cc5ccc(-n6c(O)nnc6-c6cc(C)c(O)cc6O)cc5)CC4)CC3)nc3c2CCN(c2cccc4cccc(Cl)c24)C3)C[C@@H]1CC#N [Compound 223, (S)-2-(1-acryloyl-4-(7-(8-chloronaphthalen-1-yl)-2-(2-(4-(1-(4-(3-(2,4-dihydroxy-5-methylphenyl)-5-hydroxy-4H-1,2,4-triazol-4-yl)benzyl)piperidine-4-carbonyl)piperazin-1-yl)ethoxy)-5,6,7,8-tetrahydropyrido[3,4-d]pyrimidin-4-yl)piperazin-2-yl)acetonitrile]
